Here are results for seven compounds from patent publication US4910194A, “Thienotriazolodiazepine compounds and pharmaceutical uses thereof” (Yoshitomi Pharmaceutical Industries, Ltd., priority 1988, dated 1990).

One test relates to PAF. Particulars: literature; cited from earlier work.
Test [1] has as its system PAF-induced platelet aggregation. The experiment in a line: Inhibitory effect on platelet aggregation in rabbits (ex vivo test). Particulars: Oryctolagus cuniculus, po, rabbit, 1 mg/kg orally, 24 hours, read-out: percentage of inhibition of platelet aggregation at 24 hours after oral administration. The method, then:
Test compound (1 mg/kg) was orally administered to rabbit instead of adding it to PRP as in vitro test of Experiment 1, and then the citrated blood samples (9 volumes of blood+1 volume of 3.8% sodium citrate) were collected with the passage of time. Then, the blood samples were employed to determine the inhibitory effect on platelet aggregation according to Experiment 1. The percentage of inhibition at 24 hours after the oral administration of the compound of Example 2 was 100%.

Test [2] has the same test system. As to the kind of experiment: Inhibitory effect on platelet aggregation in rabbits (in vitro test). The format is cell-based. Particulars: Oryctolagus cuniculus, rabbit PRP, PAF 1.8×10^-7 M, 37° C., read-out: Inhibition of PAF-induced platelet aggregation, IC50. On the procedure: Blood samples to which was added 0.1 volume of 3.8% sodium citrate were collected from rabbits. Platelet rich plasma (PRP) was prepared by centrifuging the blood sample at 200×g for 10 minutes, and platelet poor plasma (PPP) was prepared by centrifuging the remaining blood sample at 1000×g for 10 minutes.
Aggregation ability was measured with a turbidimetric device (6-channel NKK Hematracer 1, model PAT-6A) according to the method of G. V. R. Born described in J. Physiology, vol. 168, p. 178 (1963). The aggregometer was adjusted in sensitivity to give light transmission values of 0 and 100% for PRP and PPP, respectively. With stirring at 1000 rpm, 0.3 μl of test compound solution or vehicle was added to 0.3 ml of PRP. After the mixture was kept at 37° C. for 2 minutes, to the mixture was added 3 μl PAF (Serdary Research Lab.) at the final concentration of 1.8×10^-7 M and the light transmission was recorded for 5 minutes.
In all experiments, PAF was dissolved in ethanol at the concentration of 100 μg/ml, and, when used, diluted with 0.9% saline solution.
The inhibition percentage of test compounds on platelet aggregation were calculated from the following formula by measuring the maximal light transmission in the presence and absence of the test compounds. [formula]
IC50 (μg/ml, concentration of 50% inhibition) was graphically determined.

Another test relates to PAF-induced lethal shock. The experiment in a line: Effect on PAF-induced lethal shock in mice. The format is in vivo. Particulars: Mus musculus; male ICR mice, oral 1 hour before 80 μg/kg PAF i.v., survival over 24 hours; read-out: ED50 (p.o.), PAF-induced lethal shock. On the procedure: The experiment was carried out according to the method of Young et al. described in Prostaglandins, Vol. 30, p. 545 (1985). Groups of 9 to 15 male ICR mice (Charles River) weighing 25-30 g were used. 80 μg/kg of PAF (Serdary Research Lab.) solution was intravenously administered in a lateral tail vein 1 hour after the oral administration of test compound (0.1 ml/10 g). […] The ED50 (mg/kg, p.o.) of the compound of Example 2 was 0.01 mg/kg.

≈ marks a conversion by molar mass, not a printed value.

`Cc1nnc2n1-c1sc(CCC(=O)N3CCOCC3)cc1C(c1ccccc1Cl)=NC2` [4-(2-chlorophenyl)-9-methyl-6H-thieno-[3,2-f][1,2,4]triazolo[4,3-a][1,4]diazepine-2-propionic acid morpholide]: the “antagonistic activity on PAF” value with PAF was “exhibit antagonistic activity on PAF”.
As usually defined, the IC50 is the point on the concentration scale where inhibition reaches its midpoint. In general, ED50 refers to the dose that gives a 50% effect, or the effect in half of the subjects. On to `Cc1nnc2n1-c1sc(CCc3ccc(C(O)C(C)C)cc3)cc1C(c1ccccc1Cl)=NC2C` (stereo not drawn) [Example 2, 4-(2-chlorophenyl)-2-[2-(4-(1-hydroxy-2-methylpropyl)phenyl)ethyl]-6,9-dimethyl-6H-thieno-[3,2-f][1,2,4]triazolo[4,3-a][1,4]diazepine], for which the inhibition at 1 mg/kg in test [1] came to 100%. The IC50 in test [2] lay in the range of 0.01 to 0.03 µg/mL (≈ 0.0198 to 0.0594 µM). In the test with PAF-induced lethal shock, the ED50 turned out to be 0.01 mg/kg.
As to `Cc1nnc2n1-c1sc(CCc3ccc(CC(C)(C)O)cc3)cc1C(c1ccccc1Cl)=NC2C` (stereo not drawn) [Example 3, 4-(2-chlorophenyl)-2-[2-(4-(2-hydroxy-2-methylpropyl)phenyl)ethyl]-6,9-dimethyl-6H-thieno[3,2-f][1,2,4]triazolo[4,3-a][1,4]diazepine], in test [2], the IC50 lay in the range of 0.01 to 0.03 µg/mL (≈ 0.0198 to 0.0594 µM).
On the same count and under the same terms, then `Cc1nnc2n1-c1sc(CCc3ccc(CC(C)CO)cc3)cc1C(c1ccccc1Cl)=NC2C` (stereo not drawn) [Example 4, 4-(2-chlorophenyl)-2-[2-(4-(3-hydroxy-2-methylpropyl)phenyl)ethyl]-6,9-dimethyl-6H-thieno[3,2-f][1,2,4]triazolo[4,3-a][1,4]diazepine], with 0.03 to 0.1 µg/mL (≈ 0.0594 to 0.198 µM); and `Cc1nnc2n1-c1sc(CCc3ccc(C(O)C(C)(C)O)cc3)cc1C(c1ccccc1Cl)=NC2C` (stereo not drawn) [Example 6, 4-(2-chlorophenyl)-2-[2-(4-(1,2-dihydroxy-2-methylpropyl)phenyl)ethyl]-6,9-dimethyl-6H-thieno[3,2-f][1,2,4]triazolo[4,3-a][1,4]diazepine], with 0.03 to 0.1 µg/mL (≈ 0.0576 to 0.192 µM).
Same read-out and setting: the value for `Cc1nnc2n1-c1sc(CCc3ccc(C(=O)C(C)(C)O)cc3)cc1C(c1ccccc1Cl)=NC2C` (stereo not drawn) [Example 5, 4-(2-chlorophenyl)-2-[2-(4-(2-hydroxy-2-methylpropionyl)phenyl)ethyl]-6,9-dimethyl-6H-thieno[3,2-f][1,2,4]triazolo[4,3-a][1,4]diazepine] was 0.01 to 0.03 µg/mL (≈ 0.0193 to 0.0578 µM).
With `CCc1cc2c(s1)-n1c(C)nnc1CN=C2c1ccccc1Cl` [Etizolam, 6-(o-chlorophenyl)-8-ethyl-1-methyl-4H-s-triazolo[3,4-c]thieno[2,3-e][1,4]diazepine], the “antagonistic activity on PAF” value with PAF was “exhibits antagonistic activity on PAF”.
